Patent US20240174674A1, “NITROGEN-CONTAINING POLYCYCLIC FUSED RING COMPOUND, PHARMACEUTICAL COMPOSITION THEREOF, PREPARATION METHOD THEREFOR, AND USE THEREOF” (APPLIED PHARMACEUTICAL SCIENCE, INC., priority 2021, published 2024)
pIC50: −log10 of the molar value. Like-named read-outs stand apart in the source and are kept apart here. Each block holds one compound with its values, some of them ahead of it.

Experiments:
RET V804M = RET V804M (Homo sapiens (Human), UniProt P07949, V804M); assay: HTRF KinEASE-TK kinase activity test, RET V804M; format: biochemical; conditions: for pIC50: HTRF kinase assay; for inhibitory activity against RET V804M compared to that of cabozantinib: versus cabozantinib
Sequence of RET V804M (P07949 29-1114 V804M): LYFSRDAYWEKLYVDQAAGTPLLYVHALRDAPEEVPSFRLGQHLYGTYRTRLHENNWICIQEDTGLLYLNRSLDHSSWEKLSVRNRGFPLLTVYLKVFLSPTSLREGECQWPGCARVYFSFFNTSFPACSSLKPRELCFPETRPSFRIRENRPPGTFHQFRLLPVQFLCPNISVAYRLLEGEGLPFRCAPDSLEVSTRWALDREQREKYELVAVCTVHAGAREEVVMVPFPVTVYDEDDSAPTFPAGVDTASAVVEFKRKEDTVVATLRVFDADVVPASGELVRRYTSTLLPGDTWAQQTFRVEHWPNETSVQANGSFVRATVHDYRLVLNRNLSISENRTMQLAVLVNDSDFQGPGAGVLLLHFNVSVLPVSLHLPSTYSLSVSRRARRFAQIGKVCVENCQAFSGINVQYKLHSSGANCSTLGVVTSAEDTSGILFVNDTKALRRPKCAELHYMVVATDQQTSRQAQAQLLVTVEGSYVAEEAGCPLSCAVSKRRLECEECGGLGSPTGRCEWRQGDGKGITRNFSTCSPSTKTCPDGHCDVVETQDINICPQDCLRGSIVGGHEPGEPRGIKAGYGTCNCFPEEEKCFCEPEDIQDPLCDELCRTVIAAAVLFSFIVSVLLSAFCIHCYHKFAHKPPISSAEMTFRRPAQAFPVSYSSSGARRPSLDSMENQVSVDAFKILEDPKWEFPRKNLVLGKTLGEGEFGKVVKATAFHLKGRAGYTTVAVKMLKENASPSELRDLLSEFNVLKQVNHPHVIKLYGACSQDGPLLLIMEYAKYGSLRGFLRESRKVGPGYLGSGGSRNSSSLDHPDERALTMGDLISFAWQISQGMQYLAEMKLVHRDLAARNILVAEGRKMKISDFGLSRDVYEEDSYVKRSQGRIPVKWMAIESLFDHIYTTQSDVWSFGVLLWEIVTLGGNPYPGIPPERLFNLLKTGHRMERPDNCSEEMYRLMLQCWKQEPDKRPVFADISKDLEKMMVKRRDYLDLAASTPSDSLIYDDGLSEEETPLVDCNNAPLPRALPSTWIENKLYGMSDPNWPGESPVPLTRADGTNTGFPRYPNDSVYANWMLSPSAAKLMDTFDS

RET G810R = RET G810R (Homo sapiens (Human), UniProt P07949, G810R); assay: HTRF KinEASE-TK kinase activity test, RET G810R; conditions: for inhibitory activity against RET G810R relative to that of selpercatinib (LOXO-292): fold versus selpercatinib (LOXO-292)
Sequence of RET G810R (P07949 29-1114 G810R): as the sequence (P07949 29-1114 V804M) above, with M776V, G782R counted along it

RET-wt = RET-wt (Homo sapiens (Human), UniProt P07949); assay: HTRF KinEASE-TK kinase activity test, RET-wt; format: biochemical; conditions: for pIC50: HTRF kinase assay; for inhibitory activity against RET-wt compared to that of cabozantinib: versus cabozantinib
Sequence of RET-wt (P07949 29-1114): as the sequence (P07949 29-1114 V804M) above, with M776V counted along it

[1] = read-out: RET G810R IC50, HTRF kinase assay

Structure (SMILES): CCOc1cc(-c2ccc(N3CC4COCC(C3)N4Cc3ccc(OC)nc3)nc2)c2c3cn[nH]c3nn2c1 [Compound 114, 7-(5-(6-ethoxy-1H-pyrazolo[3′,4′:3,4]pyrazolo[1,5-α]pyridin-4-yl)pyridin-2-yl)-9-((6-methoxypyridin-3-yl)methylene)-3-oxa-7,9-diazabicyclo[3.3.1]nonane]
- inhibitory activity against RET G810R relative to that of selpercatinib (LOXO-292) (RET G810R): ≥ 10 times
- pIC50 (RET G810R; [1]): 8.44

Structure (SMILES): CCOc1cc(-c2ccc(N3CC4COCC(C3)N4C(=O)c3c(F)cccc3Cl)nc2)c2c3cn[nH]c3nn2c1 [Compound 169, N-(7-(5-(6-ethoxy-1H-pyrazolo[3′,4′:3,4]pyrazolo[1,5-α]pyridin-4-yl)pyridin-2-yl)-3-oxa-7,9-azabicyclo[3.3.1]nonan-9-yl)-2-chloro-6-fluorobenzamide]
- pIC50 (RET G810R; [1]): 8.32

Structure (SMILES): CCOc1cc(-c2ccc(N3CCC(CN(C)C)(NC(=O)c4ncccc4Cl)CC3)nc2)c2c3cn[nH]c3nn2c1 [Compound 15, 3-chloro-N-(4-((2-dimethylamino)methyl)-1-(5-(6-ethoxy-1H-pyrazolo[3′,4′:3,4]pyrazolo[1,5-α]pyridin-4-yl)pyridin-2-yl)piperidin-4-yl)picolinamide]
- inhibitory activity against RET G810R relative to that of selpercatinib (LOXO-292) (RET G810R): ≥ 10 times
- pIC50 (RET G810R; [1]): 8.82

Structure (SMILES): CCOc1cc(-c2ccc(N3CCC(CN(C)C)(NC(=O)c4c(F)cccc4F)CC3)nc2)c2c3cn[nH]c3nn2c1 [Compound 234, N-(4-((dimethylamino)methyl)-1-(5-(6-ethoxy-1H-pyrazolo[3′,4′:3,4]pyrazolo[1,5-α]pyridin-4-yl)pyridin-2-yl)piperidin-4-yl)-2,6-difluorobenzamide]
- inhibitory activity against RET G810R relative to that of selpercatinib (LOXO-292) (RET G810R): ≥ 10 times
- pIC50 (RET G810R; [1]): 8.80

Structure (SMILES): CCOc1cc(-c2ccc(N3CCC(CO)(NCc4ccc(OC)nc4)CC3)nc2)c2c3cn[nH]c3nn2c1 [Compound 229, (1-(5-(6-ethoxy-1H-pyrazolo[3′,4′:3,4]pyrazolo[1,5-α]pyridin-4-yl)pyridin-2-yl)-4-(((6-methoxypyridin-3-yl)methyl)amino)piperidin-4-yl)methanol]
- pIC50 (RET G810R; [1]): 7.42

Structure (SMILES): CCOc1cc(-c2ccc(N3CCC(CO)(NC(=O)c4ncccc4Cl)CC3)nc2)c2c3cn[nH]c3nn2c1 [Compound 12, 3-chloro-N-(1-(5-(6-ethoxy-1H-pyrazolo[3′,4′:3,4]pyrazolo[1,5-α]pyridin-4-yl)pyridin-2-yl)-4-(hydroxymethyl)piperidin-4-yl)picolinamide]
- inhibitory activity against RET G810R relative to that of selpercatinib (LOXO-292) (RET G810R): ≥ 10 times
- pIC50 (RET G810R; [1]): 8.68

Structure (SMILES): C=CC(=O)Oc1cc(-c2ccc(N3CC4CC(C3)N4Cc3ccc(OC)nc3)nc2)c2c3cn[nH]c3nn2c1 [Compound 242, 4-(6-(6-((6-methoxypyridin-3-yl)methyl)-3,6-diazabicyclo[3.1.1]heptan-3-yl)pyridin-3-yl)-1H-py razolo[3′,4′:3,4]pyrazolo[1,5-α]pyridin-6-yl acrylate]
- pIC50 (RET G810R; [1]): 8.33

Structure (SMILES): CCOc1cc(-c2ccc(N3CC4CCC3CN4C(=O)c3c(F)cccc3Cl)nc2)c2c3cn[nH]c3nn2c1 (stereo not shown) [Compound 159]
- pIC50 (RET G810R; [1]): 7.79

Structure (SMILES): CCOc1cc(-c2ccc(N3C[C@@H]4C5CCC([C@@H]4C3)N5C(=O)c3c(F)cccc3Cl)nc2)c2c3cn[nH]c3nn2c1 [Compound 180, (2-chloro-6-fluorophenyl)((3aR,7aS)-2-(5-(6-ethoxy-1H-pyrazolo[3′,4′:3,4]pyrazolo[1,5-α]pyridin-4-yl)pyridin-2-yl)octahydro-1H-4,7-epiminoisoindol-8-yl)methanone]
- pIC50 (RET G810R; [1]): 8.01

Structure (SMILES): COc1ccc(CN2C3CC2CN(c2ccc(-c4cc(C#N)cn5nc6[nH]ncc6c45)cn2)C3)cn1 [Compound 243]
- pIC50 (RET G810R; [1]): 7.05

Structure (SMILES): CCOc1cc(-c2cnc(N3CCC(C)(NC(=O)c4c(F)ccc(F)c4F)CC3)cn2)c2c3cn[nH]c3nn2c1 [Compound 57, N-(1-(5-(6-ethoxy-1H-pyrazolo[3′,4′:3,4]pyrazolo[1,5-α]pyridin-4-yl)pyrazin-2-yl)-4-methylpiperidin-4-yl)-2,3,6-trifluorobenzamide]
- pIC50 (RET G810R; [1]): 8.16

Other lines, results leading:

- pIC50 (RET V804M): 10.52
- inhibitory activity against RET V804M compared to that of cabozantinib (RET V804M): significantly superior
- inhibitory activity against RET G810R relative to that of selpercatinib (LOXO-292) (RET G810R): ≥ 10 times
- pIC50 (RET G810R; [1]): 8.64
- pIC50 (RET-wt): 10.00
- inhibitory activity against RET-wt compared to that of cabozantinib (RET-wt): significantly superior
Structure (SMILES): CCOc1cc(-c2ccc(N3CCC(C)(NC(=O)c4ncc(F)cc4Cl)CC3)nc2)c2c3cn[nH]c3nn2c1 [Compound 4]

- pIC50 (RET V804M): 10.00
- inhibitory activity against RET V804M compared to that of cabozantinib (RET V804M): significantly superior
- inhibitory activity against RET G810R relative to that of selpercatinib (LOXO-292) (RET G810R): ≥ 10 times
- pIC50 (RET G810R; [1]): 8.54
- pIC50 (RET-wt): 10.00
- inhibitory activity against RET-wt compared to that of cabozantinib (RET-wt): significantly superior
Structure (SMILES): CCOc1cc(-c2ccc(N3CCC(C)(NC(=O)c4ncccc4Cl)CC3)nc2)c2c3cn[nH]c3nn2c1 [Compound 3, 3-chloro-N-(1-(5-(6-ethoxy-1H-pyrazolo[3′,4′:3,4]pyrazolo[1,5-α]pyridin-4-yl)pyridin-2-yl)-4-methylpiperidin-4-yl)-2-picolinamide]

- pIC50 (RET V804M): 10.00
- inhibitory activity against RET V804M compared to that of cabozantinib (RET V804M): significantly superior
- pIC50 (RET G810R; [1]): 8.38
- pIC50 (RET-wt): 10.00
- inhibitory activity against RET-wt compared to that of cabozantinib (RET-wt): significantly superior
Structure (SMILES): CCOc1cc(-c2ccc(N3CC[C@H](NC(=O)CC(C)C)[C@@H](O)C3)nc2)c2c3cn[nH]c3nn2c1 [Compound 39]

- pIC50 (RET V804M): 10.30
- inhibitory activity against RET V804M compared to that of cabozantinib (RET V804M): significantly superior
- inhibitory activity against RET G810R relative to that of selpercatinib (LOXO-292) (RET G810R): ≥ 10 times
- pIC50 (RET G810R; [1]): 8.85
- pIC50 (RET-wt): 10.00
- inhibitory activity against RET-wt compared to that of cabozantinib (RET-wt): significantly superior
Structure (SMILES): CCOc1cc(-c2ccc(N3CC[C@H](NC(=O)c4ncccc4Cl)[C@H](O)C3)nc2)c2c3cn[nH]c3nn2c1 [Compound 42]

- pIC50 (RET V804M): 10.00
- inhibitory activity against RET V804M compared to that of cabozantinib (RET V804M): significantly superior
- inhibitory activity against RET G810R relative to that of selpercatinib (LOXO-292) (RET G810R): ≥ 10 times
- pIC50 (RET G810R; [1]): 8.55
- pIC50 (RET-wt): 10.00
- inhibitory activity against RET-wt compared to that of cabozantinib (RET-wt): significantly superior
Structure (SMILES): CCOc1cc(-c2ccc(N3CC[C@H](NC(=O)C4(C(F)(F)F)CCC4)[C@@H](O)C3)nc2)c2c3cn[nH]c3nn2c1 [Compound 41]

- pIC50 (RET V804M): 10.22
- inhibitory activity against RET V804M compared to that of cabozantinib (RET V804M): significantly superior
- inhibitory activity against RET G810R relative to that of selpercatinib (LOXO-292) (RET G810R): ≥ 10 times
- pIC50 (RET G810R; [1]): 8.80
- pIC50 (RET-wt): 10.00
- inhibitory activity against RET-wt compared to that of cabozantinib (RET-wt): significantly superior
Structure (SMILES): CCOc1cc(-c2ccc(N3CC[C@H](NC(=O)c4cc(F)ccc4C)[C@@H](O)C3)nc2)c2c3cn[nH]c3nn2c1 [Compound 46]

- pIC50 (RET G810R; [1]): 7.82
Structure (SMILES): CCOc1cc(-c2ccc(N3CC4(CCN(C(=O)c5c(F)cccc5Cl)C4)C3)nc2)c2c3cn[nH]c3nn2c1 [Compound 189]

- pIC50 (RET G810R; [1]): 8.20
Structure (SMILES): CCOc1cc(-c2ccc(N3CCC(CN4CCCC4)(C(=O)NCC(C)C)CC3)nc2)c2c3cn[nH]c3nn2c1 [Compound 37, 4-(pyrrolidin-1-ylmethyl)-1-(5-(6-ethoxy-1H-pyrazolo[3′,4′:3,4]pyrazolo[1,5-α]pyridin-4-yl)pyridin-2-yl)-N-isobutylpiperidine-4-carboxamide]

- inhibitory activity against RET G810R relative to that of selpercatinib (LOXO-292) (RET G810R): ≥ 10 times
- pIC50 (RET G810R; [1]): 8.82
Structure (SMILES): CCOc1cc(-c2ccc(N3CC[C@H](NC(=O)C4(C(F)(F)F)CCC4)[C@H](O)C3)nc2)c2c3cn[nH]c3nn2c1 [Compound 281, N-((3R,4S)-1-(5-(6-ethoxy-1H-pyrazolo[3′,4′:3,4]pyrazolo[1,5-α]pyridin-4-yl)pyridin-2-yl)-3-hydroxypiperidin-4-yl)-1-(trifluoromethyl)cyclobutane-1-carboxamide]

- inhibitory activity against RET G810R relative to that of selpercatinib (LOXO-292) (RET G810R): ≥ 10 times
- pIC50 (RET G810R; [1]): 9.05
Structure (SMILES): CCOc1cc(-c2ccc(N3CC[C@H](NC(=O)c4c(C)cccc4Cl)[C@H](O)C3)nc2)c2c3cn[nH]c3nn2c1 [Compound 278, 2-chloro-N-((3R,4S)-1-(5-(6-ethoxy-1H-pyrazolo[3′,4′:3,4]pyrazolo[1,5-α]pyridin-4-yl)pyridin-2-yl)-3-hydroxypiperidin-4-yl)-6-methylbenzamide]

- inhibitory activity against RET G810R relative to that of selpercatinib (LOXO-292) (RET G810R): ≥ 10 times
- pIC50 (RET G810R; [1]): 8.55
Structure (SMILES): O=C(N[C@H]1CCN(c2ccc(-c3cc(OCC(F)F)cn4nc5[nH]ncc5c34)cn2)C[C@H]1O)c1c(F)cccc1F [Compound 268, N-((3R,4S)-1-(5-(6-(2,2-difluoroethoxy)-1H-pyrazolo[3′,4′:3,4]pyrazolo[1,5-α]pyridin-4-yl)pyridin-2-yl)-3-hydroxypiperidin-4-yl)-2,6-difluorobenzamide]

- pIC50 (RET G810R; [1]): 8.03
Structure (SMILES): CCOc1cc(-c2ccc(N3CCC(CO)(C(=O)NCC(C)C)CC3)nc2)c2c3cn[nH]c3nn2c1 [Compound 87, 1-(5-(6-ethoxy-1H-pyrazolo[3′,4′:3,4]pyrazolo[1,5-α]pyridin-4-yl)pyridin-2-yl)-4-(hydroxymethy 1)-N-isobutylpiperidine-4-carboxamide]

- pIC50 (RET G810R): 7.84
Structure (SMILES): CCOc1cc(-c2ccc(N3CC[C@H](NCc4c(F)cccc4Cl)[C@@H](O)C3)nc2)c2c3cn[nH]c3nn2c1 [Compound 107, (3S,4S)-4-((2-chloro-6-fluorobenzyl)amino)-1-(5-(6-ethoxy-1H-pyrazolo[3′,4′:3,4]pyrazolo[1,5-α ]pyridin-4-yl)pyridin-2-yl)piperidin-3-ol]

- pIC50 (RET G810R; [1]): 8.19
Structure (SMILES): CCOc1cc(-c2ccc(N3CCC(C)(NC(=O)c4cc(F)ccc4C)CC3)nc2)c2c3cn[nH]c3nn2c1 [Compound 1, N-(1-(5-(6-ethoxy-1H-pyrazolo[3′,4′:3,4]pyrazolo[1,5-α]pyridin-4-yl)pyridin-2-yl)-4-methylpiperidin-4-yl)-5-fluoro-2-methylbenzamide]
